The values below come from ChEMBL document CHEMBL1201862, “PubChem BioAssay data set” (2004).

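How tested: cells in 96-well plates exposed to compound for 48 hours at five concentrations. GI50 marks 50% less growth.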 The source made the active and inactive calls. Cut-off read from the data, not from the text of the source: active = GI50 up to about 1.1 µM and inactive = higher. Where only a bound is given, the exact number is not on record here.

For orientation: GI50 means the concentration at which growth is held to half of that of the control.

What all share (test): DTP human tumour cell line panel, 48 h
For assay [1], the system named is 786-0.
The test system of assay [2] is A498.
Assay [3] concerns BT-549.
Assay [4] concerns EKVX.
The subject of assay [5] is HCT-116.
For assay [6], the system named is K562.
Assay [7] relates to M14.
Assay [8] relates to MDA-MB-435.
The subject of assay [9] is MOLT-4.
Assay [10] has as its system NCI-H23.
The subject of assay [11] is OVCAR-5.
Assay [12] relates to SF-295.
For assay [13], the system named is SK-MEL-28.
The subject of assay [14] is SNB-75.
Assay [15] relates to SW-620.
Assay [16] has as its system T47D.
The subject of assay [17] is UACC-62.
For assay [18], the system named is UO-31.
Assay [19] relates to HCC 2998.

`N#C[C@H](C(=O)c1ccccc1F)c1nc2ccccc2s1`: the GI50 in assay [1] was 31.2 µM (inactive); in assay [2] it was 33 µM (inactive); in [3], 46.6 µM (inactive); in assay [4], 28 µM (inactive); in assay [5] it was 23.5 µM (inactive); in assay [6], 27.3 µM (inactive). Further, the GI50 in assay [7] was 21.8 µM (inactive); in [8] it was 39.8 µM (inactive); in assay [9], 26.5 µM (inactive); in [10], 46.3 µM (inactive); in [11], 31 µM (inactive); in assay [12] it was 16.1 µM (inactive). In addition, the GI50 in [13] was 36.5 µM (inactive); in [14], 14.8 µM (inactive); in [15] it was 32.3 µM (inactive); in [16], 34.8 µM (inactive); in assay [17] it was 50.8 µM (inactive); in assay [18] it was 46.8 µM (inactive).

For the molecule `COC(=O)Cc1c(-c2c(CC(=O)OC)c3ccccc3n2C2OC(COC3OC(COC(C)=O)C(OC(C)=O)C(OC(C)=O)C3OC(C)=O)C(O)C(O)C2O)[nH]c2ccccc12` (stereo unspecified), the GI50 in assay [1] was 37 µM (inactive); in assay [2], 57.8 µM (inactive); in [3], 44.7 µM (inactive); in assay [4], > 100 µM (inactive); in assay [5], > 100 µM (inactive); in [6], > 100 µM (inactive). Moreover, the GI50 in assay [7] is > 100 µM (inactive); in assay [8], > 100 µM (inactive); in assay [9] it was > 100 µM (inactive); in [10] it was > 100 µM (inactive); in assay [11] it was > 100 µM (inactive); in assay [12], 36.6 µM (inactive). Further, the GI50 in assay [13], in assay [15], in [16], in [17] and in assay [18] was > 100 µM (inactive) in each case.

With `COc1ccc(/N=C2\C(=N/c3ccc(OC)cc3)N(c3ccc(N(C)C)cc3)C(=S)N2c2ccc(OC)cc2)cc1`, the GI50 was 0.767 µM (active) in assay [1]; > 100 µM (inactive) in assay [2]; > 100 µM (inactive) in assay [3]; > 100 µM (inactive) in assay [4]; > 100 µM (inactive) in assay [19]; > 100 µM (inactive) in assay [5]. Further, the GI50 in assay [6] is > 100 µM (inactive); in assay [7], > 100 µM (inactive); in assay [8], > 100 µM (inactive); in [9], 0.0329 µM (active); in [10], > 100 µM (inactive); in [11] it was > 100 µM (inactive). Moreover, the concentration for 50% growth inhibition (GI50) is 0.0518 µM (active) in assay [12]; > 100 µM (inactive) in assay [13]; > 100 µM (inactive) in [15]; > 100 µM (inactive) in [16]; > 100 µM (inactive) in assay [17]; 3.81 µM (inactive) in [18].

In the case of `CCc1cn2c(/C=N/N=C(N)N)c(-c3cc(C)c(Cl)cc3Cl)nc2s1`, the GI50 in assay [1] was 0.847 µM (active); in assay [2] it was 1.77 µM (inactive); in assay [3] it was 1.64 µM (inactive); in assay [5], 0.785 µM (active); in assay [6] it was 1.01 µM (active); in assay [7], 1.65 µM (inactive). The GI50 is 1.41 µM (inactive) in [8]; 1.77 µM (inactive) in [10]; 1.61 µM (inactive) in assay [11]; 0.7 µM (active) in [12]; 1.48 µM (inactive) in assay [13]; 1.55 µM (inactive) in assay [14]. The GI50 was 1.64 µM (inactive) in [15], 1.4 µM (inactive) in assay [16], 1.42 µM (inactive) in [17] and 1.64 µM (inactive) in assay [18].

`Cc1ccnc2c1C(=O)C1=C(OC(C)(C)CC1O)C2=O` (stereo unspecified): the GI50 in assay [1] is 4.08 µM (inactive); in [2], 15.3 µM (inactive); in assay [3] it was 3.36 µM (inactive); in assay [4] it was 5.21 µM (inactive); in assay [19] it was 3.88 µM (inactive); in assay [5], 2.82 µM (inactive). Also, the GI50 was 2.99 µM (inactive) in assay [6]; 2.62 µM (inactive) in assay [7]; 1.32 µM (inactive) in [8]; 3.9 µM (inactive) in assay [9]; 1.76 µM (inactive) in assay [10]; 8.26 µM (inactive) in assay [11]. For the same molecule, the GI50 in [12] was 3.81 µM (inactive); in [13], 2.05 µM (inactive); in assay [15], 2.87 µM (inactive); in [16] it was 4.89 µM (inactive); in assay [17] it was 1.71 µM (inactive); in assay [18] it was 2.2 µM (inactive).

For the molecule `CCOC(=O)/C=C(/C(=O)OCC)n1cc(Cl)c(=O)n(CC(=O)OCC)c1=O`, the GI50 in assay [1] is 0.828 µM (active); in [2] it was 17.5 µM (inactive); in [3] it was 5.92 µM (inactive); in [4], 5.27 µM (inactive); in [5] it was 4.97 µM (inactive); in assay [6], 2.1 µM (inactive). The GI50 in assay [7] was 4.57 µM (inactive); in assay [8], 4.95 µM (inactive); in assay [9] it was 1.15 µM (inactive); in assay [10], 5.74 µM (inactive); in assay [11], 4.52 µM (inactive); in assay [12], > 25 µM (inactive). Further, the GI50 in assay [13] is 5.02 µM (inactive); in assay [14], 5.13 µM (inactive); in [15] it was 0.995 µM (active); in assay [16] it was 4.81 µM (inactive); in [17], 4.53 µM (inactive).

With `CC1=C(C(=O)OCCO[N+](=O)[O-])C(c2cccc([N+](=O)[O-])c2)C(C(=O)OC(C)C)=C(C)N1` (stereo unspecified), the GI50 was 13.3 µM (inactive) in [1]; 19.4 µM (inactive) in [2]; 14 µM (inactive) in assay [3]; 16.8 µM (inactive) in [4]; 15.7 µM (inactive) in [19]; 10.5 µM (inactive) in [5]. The GI50 in assay [6] is 18.2 µM (inactive); in [7] it was 16 µM (inactive); in assay [8], 15.2 µM (inactive); in assay [9] it was 3.23 µM (inactive); in assay [10], 17.6 µM (inactive); in [11] it was 14.9 µM (inactive). For the same molecule, the GI50 was 11.4 µM (inactive) in assay [12]; 14.3 µM (inactive) in assay [13]; 22.3 µM (inactive) in assay [15]; 15.6 µM (inactive) in assay [16]; 14.5 µM (inactive) in assay [17]; 12.6 µM (inactive) in [18].

As to `COC(=O)c1cc2c(cc1Cl)Sc1nnc(Nc3ccc(C)cc3)n1S2(=O)=O`, the GI50 in assay [1] was 7.69 µM (inactive); in assay [2], 15.2 µM (inactive); in assay [3] it was 13.4 µM (inactive); in assay [4] it was 12.9 µM (inactive); in [19] it was 4.75 µM (inactive); in assay [5], 8.93 µM (inactive). Moreover, the GI50 in assay [6] is 5.13 µM (inactive); in assay [7], 12.7 µM (inactive); in assay [8] it was 7.19 µM (inactive); in [9] it was 2.94 µM (inactive); in [10], 3.61 µM (inactive); in assay [11] it was 17.1 µM (inactive). Besides, the GI50 was 10.9 µM (inactive) in assay [12]; 9.33 µM (inactive) in assay [13]; 1.75 µM (inactive) in assay [16]; 12.3 µM (inactive) in assay [17]; 10.5 µM (inactive) in assay [18].

For `C=CCc1c(C)nc(C)nc1N/N=C/C=C/c1ccccc1`, the GI50 in assay [1] was 65.2 µM (inactive); in assay [2], 25.9 µM (inactive); in [3] it was 23.8 µM (inactive); in assay [4], 17.6 µM (inactive); in [5] it was 36.1 µM (inactive); in assay [6], 23.3 µM (inactive). Also, the GI50 in [7] was 31.2 µM (inactive); in assay [8], 23.6 µM (inactive); in assay [9], 22.4 µM (inactive); in assay [10] it was 27.9 µM (inactive); in [11], 99.5 µM (inactive); in assay [12], 19.5 µM (inactive). Also, the GI50 was 41 µM (inactive) in assay [13]; 21.9 µM (inactive) in [14]; 51.8 µM (inactive) in [15]; 3.73 µM (inactive) in [16]; 20.6 µM (inactive) in assay [17]; 39.7 µM (inactive) in assay [18].

For the molecule `COc1ccc(CNC2=N/C(=C\c3ccccc3Cl)C(=O)N2C)cc1`, the GI50 in assay [1] was 19.7 µM (inactive); in [2] it was 25.7 µM (inactive); in assay [3], 36.8 µM (inactive); in [4] it was 28.3 µM (inactive); in [19], 21.8 µM (inactive); in [5], 18.4 µM (inactive). The GI50 in [6] was 25.5 µM (inactive); in assay [7] it was 17.9 µM (inactive); in assay [8], 19 µM (inactive); in assay [9], 27.1 µM (inactive); in assay [11], 27.9 µM (inactive); in [12], 31.7 µM (inactive). The GI50 in [13] was 33 µM (inactive); in assay [14] it was 11.8 µM (inactive); in assay [15] it was 19.5 µM (inactive); in assay [16], 14.2 µM (inactive); in assay [17] it was 17.5 µM (inactive).

`Cc1[nH]n(C2=NCCN2)c(=O)c1C`: the GI50 in assay [1], in [2], in assay [3], in assay [4], in assay [5] and in assay [6] was > 100 µM (inactive) each time. Further, the GI50 in [7], in [8], in assay [9], in [10], in assay [11] and in [12] was > 100 µM (inactive) each time. The GI50 in [14] is 89.5 µM (inactive); in assay [15], > 100 µM (inactive); in [16] it was > 100 µM (inactive); in assay [17], > 100 µM (inactive); in [18], > 100 µM (inactive).
